In patent US20070160975A1, “Method for the Identification of Drugs to Treat Stroke at Delayed Timepoints” (UNIVERSITY OF SOUTH FLORIDA, priority 2006, published 2007):

How the values were obtained:
[1] = test system: primary microglial cultures; experiment: LPS stimulated nitric oxide release, Griess reaction; assay type: cell-based, rat; details: nitric oxide by Griess reaction
Method: (§1) FIG. 2 is a graph illustrating that sigma receptor activation reduces LPS-induced cytotoxin production. […] Nitric oxide levels were quantified using the Griess reaction while TNF-α levels were measured by ELISA.
(§2) To gauge anti-inflammatory action, primary microglial cultures will be treated with lipopolysaccharide, which elicits a robust inflammatory response from these cells. Compounds that are effective agonist stroke at delayed timepoints are able to block the LPS-induced inflammatory response in microglial cells. The inflammatory cytokine, TNF-α and nitric oxide are two inflammatory agents to be measured to determine anti-inflammatory action of the compound. […] Using these two in vitro screening methods, other compounds that will be useful in treating stroke will be discovered.
Nitric Oxide Determination: The supematant from treated primary rat rnicrogiia cultures will be harvested, placed in 1.5 ml micro-centrifuge tubes and then centrifuged in a bench top micro-centrifuge at 13,000×g for 1 minute. The supernatant will be withdrawn and placed in a clean, labeled micro-centrifuge tube. Standards (between 100 μM and 1 μM) will be prepared by diluting stock 1 mM Sodium Nitrite, contained in the kit, with DMEM in 1.5 ml micro centrifuge tubes. […] The absorbance at 458 nm will be measured in a spectrophotometer capable of reading 96 well plates.

[2] = test system: primary microglial cultures; experiment: LPS stimulated TNF-α release, ELISA; assay type: cell-based, rat; details: TNF-α by ELISA
Method: as §1, §2
TNF-α ELISA-Capture antibody (#MAB510 anti-rat antibody TNF R&D biosysterns) will be diluted with 2 μg/ml in coating buffer and incubated at 4° C. overnight. The capture antibody will then coat a high protein binding 96 well plate. Each well of the 96 well plate will be aspirated and washed three times with wash buffer. […] During incubation, direct light will be avoided 50 μl of 1 M H2SO4 will be added to each well and optical density will be determined within 30 minutes using a microplate reader set at 450 nm.

## Cc1ccccc1N=C(N)Nc1ccccc1C [DTG]
[1]
  LPS stimulated nitric oxide release: dose dependently reduced
[2]
  LPS stimulated TNF-α release: dose dependently reduced
